The values below come from patent publication US8318769B2, “Substituted sulfonamide compounds” (Gruenethal GmbH, priority 2008, dated 2012).

Usually inhibition stands for the drop in the measured response relative to a control, in per cent.

For experiment [1], the target named is T1, bradykinin 1 receptor (B1R) of the rat (Rattus norvegicus, UniProt P97583).
T1 construct: expressed in transfected cells
T1 sequence (P97583 1-337): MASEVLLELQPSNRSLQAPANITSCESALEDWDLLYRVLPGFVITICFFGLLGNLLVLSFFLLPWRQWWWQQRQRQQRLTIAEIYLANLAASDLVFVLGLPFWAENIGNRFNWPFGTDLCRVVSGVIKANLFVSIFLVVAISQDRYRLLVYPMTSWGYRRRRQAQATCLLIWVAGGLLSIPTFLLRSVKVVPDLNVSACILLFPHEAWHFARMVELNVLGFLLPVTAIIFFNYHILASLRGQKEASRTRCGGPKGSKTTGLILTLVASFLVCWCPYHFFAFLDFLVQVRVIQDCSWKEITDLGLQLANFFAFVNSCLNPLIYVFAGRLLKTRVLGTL
Nature of the experiment: FLIPR Ca2+ assay, B1R antagonism, rat. Type of experiment: cell-based. As to conditions: CHO-K1, 10 μM test substance; CHO K1 cells with rat B1R gene (rB1R cells); Des-Arg9-bradykinin at EC80; % inhibition compared with the maximum achievable inhibition; read-out: B1R antagonism, rat [10 μM] % inhibition. An outline of the steps:
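Antagonism is given as % of maximum achievable suppression of agonist-evoked Ca2+ influx, measured by Fluo-4 peak fluorescence in FLIPR. Stable hB1R or rB1R CHO K1 lines received 10 μM compound for 10-20 min before EC80 Lys-Des-Arg9-bradykinin (human) or Des-Arg9-bradykinin (rat).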

For experiment [2], the target named is T2, human bradykinin 1 receptor (B1R) (Homo sapiens, UniProt P46663).
T2 construct: expressed in transfected cells
T2 sequence (P46663 1-353): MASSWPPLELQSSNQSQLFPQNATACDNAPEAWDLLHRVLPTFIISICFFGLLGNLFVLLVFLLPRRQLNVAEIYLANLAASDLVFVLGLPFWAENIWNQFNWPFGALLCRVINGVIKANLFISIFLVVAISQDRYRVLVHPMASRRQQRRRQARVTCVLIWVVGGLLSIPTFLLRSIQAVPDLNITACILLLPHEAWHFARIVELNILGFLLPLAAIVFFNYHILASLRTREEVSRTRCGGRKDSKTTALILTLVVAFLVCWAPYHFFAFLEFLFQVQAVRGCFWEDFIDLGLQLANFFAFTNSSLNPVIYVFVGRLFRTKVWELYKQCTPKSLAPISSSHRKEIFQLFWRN
Nature of the experiment: FLIPR Ca2+ assay, B1R antagonism, human. Type of experiment: cell-based. As to conditions: 10 μM test substance; CHO K1 cells with human B1R gene (hB1R cells); Lys-Des-Arg9-bradykinin at EC80; % inhibition compared with the maximum achievable inhibition; read-out: B1R antagonism, human [10 μM] % inhibition. Here is the method:
The agonistic or antagonistic action of substances can be quantified on the bradykinin 1 receptor (B1R) of the human and rat species with ectopically expressing cell lines (CHO K1 cells) and with the aid of a Ca^2+-sensitive dyestuff (Fluo-4) in a fluorescent imaging plate reader (FLIPR). The figure in % activation is based on the Ca^2+ signal after addition of Lys-Des-Arg^9-bradykinin (0.5 nM) or Des-Arg^9-bradykinin (100 nM). Antagonists lead to a suppression of the Ca^2+ inflow after addition of the agonist. % inhibition compared with the maximum achievable inhibition is stated.
The agonistic or antagonistic action of substances can be determined on the bradykinin 1 receptor (B1R) of the human and rat species with the following assay. In accordance with this assay, the Ca^2+ inflow through the channel is quantified with the aid of a Ca^2+-sensitive dyestuff (type Fluo-4, Molecular Probes Europe BV, Leiden, Holland) in a fluorescent imaging plate reader (FLIPR, Molecular Devices, Sunnyvale, USA).
Chinese hamster ovary cells (CHO K1 cells) transfected stably with the human B1R gene (hB1R cells) or the B1R gene of the rat (rB1R cells) are used. For functional studies, these cells are plated out on black 96-well plates with a clear base (BD Biosciences, Heidelberg, Germany or Greiner, Frickenhausen, Germany) in a density of 20,000-35,000 cells/well. The cells are left overnight at 37° C. and 5% CO2 in culture medium (hB1R cells: Nutrient Mixture Ham's F12, Gibco Invitrogen GmbH, Karlsruhe, Germany or DMEM, Sigma-Aldrich, Taufkirchen, Germany; rB1R cells: D-MEM/F12, Gibco Invitrogen GmbH, Karlsruhe, Germany) with 10 vol. % FBS (foetal bovine serum, Gibco Invitrogen GmbH, Karlsruhe, Germany or PAN Biotech GmbH, Aidenbach, Germany).
On the following day, the cells are loaded for 60 min at 37° C. with 2.13 μM Fluo-4 (Molecular Probes Europe BV, Leiden, Holland) in HBSS buffer (Hank's buffered saline solution, Gibco Invitrogen GmbH, Karlsruhe, Germany) with 2.5 mM probenecid (Sigma-Aldrich, Taufkirchen, Germany) and 10 mM HEPES (Sigma-Aldrich, Taufkirchen, Germany). The plates are then washed 2× with HBSS buffer, and HBSS buffer which additionally contains 0.1% BSA (bovine serum albumin; Sigma-Aldrich, Taufkirchen, Germany), 5.6 mM glucose and 0.05% gelatine (Merck KGaA, Darmstadt, Germany) is added. After a further incubation of 20 minutes at room temperature, the plates are inserted into the FLIPR for the Ca^2+ measurement.
Alternatively, the plates are washed with buffer A (15 mM HEPES, 80 mM NaCl, 5 mM KCl, 1.2 mM CaCl2, 0.7 mM MgSO4, 2 g/l glucose, 2.5 mM probenecid), buffer A is added and the plates are loaded with 2.5 μM Fluo-4 and 0.025% Pluronic F127 (Sigma-Aldrich, Taufkirchen, Germany). Thereafter, the cells are washed 2× with buffer A and incubated for 30 minutes with buffer A, which additionally contains 0.05% BSA and 0.05% gelatine, at room temperature and thereafter inserted into the FLIPR for the Ca^2+ measurement.
The Ca^2+-dependent fluorescence is measured here before and after addition of substances (λex=488 nm, λem=540 nm). Quantification is by measurement of the highest fluorescence intensity (FC, fluorescence counts) over time.
The FLIPR protocol consists of 2 additions of substance. Test substances (10 μM) are first pipetted on to the cells and the Ca^2+ inflow is compared with the control (hB1R: Lys-Des-Arg^9-bradykinin >=50 nM; rB1R: Des-Arg^9-bradykinin 10 μM). This gives the figure in % activation based on the Ca^2+ signal after addition of Lys-Des-Arg^9-bradykinin (>=50 nM) or Des-Arg^9-bradykinin (10 μM).
After incubation for 10-20 minutes, Lys-Des-Arg^9-bradykinin (hB1R) or Des-Arg^9-bradykinin (rB1R) in the concentration of the EC80 is applied and the inflow of Ca^2+ is likewise determined. Antagonists lead to a suppression of the Ca^2+ inflow. % inhibition compared with the maximum achievable inhibition is calculated. […]

`O=C(COCC1CCc2ccccc2N1S(=O)(=O)c1ccc(Cl)c(Cl)c1)N1CCC(OCCCN2CCCC2)(c2cccnc2)CC1` (stereo not drawn) [Example 45, 2-((1-(3,4-dichlorophenylsulfonyl)-1,2,3,4-tetrahydroquinolin-2-yl)methoxy)-1-(4-(pyridin-3-yl)-4-(3-(pyrrolidin-1-yl)propoxy)piperidin-1-yl)ethanone]: the inhibition at 10 µM stood at 103% in experiment [1] and 76% in experiment [2].

`O=C(COCC1CCCCN1S(=O)(=O)c1ccccc1C(F)(F)F)N1CCC(OCCN2CCCC2)(c2cccnc2)CC1` (stereo not drawn) [Example 116, 1-[4-pyridin-3-yl-4-(2-pyrrolidin-1-yl-ethoxy)-piperidin-1-yl]-2-[[1-[[2-(trifluoromethyl)-phenyl]sulfonyl]-piperidin-2-yl]-methoxy]-ethanone]: the inhibition at 10 µM in experiment [1] was determined as 101%; in experiment [2], 100%.

On to `COc1cc(C)c(S(=O)(=O)N2CCCC[C@H]2COCC(=O)N2CCC(OCCN3CCCC3)(c3cccc(Cl)c3)CC2)c(C)c1` [Example 56, 1-[4-(3-chlorophenyl)-4-(2-pyrrolidin-1-yl-ethoxy)-piperidin-1-yl]-2-[[(2S)-1-[(4-methoxy-2,6-dimethyl-phenyl)sulfonyl]-piperidin-2-yl]-methoxy]-ethanone], for which the inhibition at 10 µM in experiment [1] amounted to 100%; in experiment [2], 99%.

As to `COc1cc(C)c(S(=O)(=O)N(C)CCOCC(=O)N2CCC(OCCCN3CCN(C)CC3)(c3cccnc3)CC2)c(C)c1` [Example 34, 4-methoxy-N,2,6-trimethyl-N-(2-(2-(4-(3-(4-methylpiperazin-1-yl)propoxy)-4-(pyridin-3-yl)piperidin-1-yl)-2-oxoethoxy)ethyl)benzenesulfonamide], the inhibition at 10 µM in experiment [1] was 100%; in experiment [2], 99%.

On to `COc1cc(C)c(S(=O)(=O)N2c3ccccc3OCC2COCC(=O)N2CCC(OCCN3CCCC3)(c3cccc(F)c3)CC2)c(C)c1` (stereo not drawn) [Example 107, 1-[4-(3-fluorophenyl)-4-(2-pyrrolidin-1-yl-ethoxy)-piperidin-1-yl]-2-[[4-[(4-methoxy-2,6-dimethyl-phenyl)sulfonyl]-3,4-dihydro-2H-[1,4]benzoxazin-3-yl]-methoxy]-ethanone], for which the inhibition at 10 µM in experiment [1] is 97%; in experiment [2] it was 98%.

Take `O=C(COCCN(C1CCc2ccccc21)S(=O)(=O)c1ccc(Cl)cc1Cl)N1CCC(OCCN2CCCC2)(c2cccnc2)CC1` (stereo not drawn) [Example 7, 2,4-dichloro-N-(2,3-dihydro-1H-inden-1-yl)-N-(2-(2-oxo-2-(4-(pyridin-3-yl)-4-(2-(pyrrolidin-1-yl)ethoxy)piperidin-1-yl)ethoxy)ethyl)benzenesulfonamide]: the inhibition at 10 µM in experiment [1] amounted to 94%; in experiment [2], 99%.

With `COc1cc(C)c(S(=O)(=O)N(C)CCOCC(=O)N2CCC(OCCCN3CCCCC3)(c3cccnc3)CC2)c(C)c1` [Example 18, 4-methoxy-N,2,6-trimethyl-N-(2-(2-oxo-2-(4-(3-(piperidin-1-yl)propoxy)-4-(pyridin-3-yl)piperidin-1-yl)ethoxy)ethyl)benzenesulfonamide], the inhibition at 10 µM in experiment [1] worked out at 103%; in experiment [2] it was 102%.

Regarding `COc1cc(C)c(S(=O)(=O)N2CCCCC2COCC(=O)N2CCC(OCCCN3CCN(C)CC3)(c3cccnc3)CC2)c(C)c1` (stereo not drawn) [Example 33, 2-((1-(4-methoxy-2,6-dimethylphenylsulfonyl)piperidin-2-yl)methoxy)-1-(4-(3-(4-methylpiperazin-1-yl)propoxy)-4-(pyridin-3-yl)piperidin-1-yl)ethanone], the inhibition at 10 µM in experiment [1] is 103%; in experiment [2], 98%.

As to `COc1cc(C)c(S(=O)(=O)N2CCCC[C@H]2COCC(=O)N2CCC(OCCN3CCCC3)(c3cccc(C(F)(F)F)c3)CC2)c(C)c1` [Example 54, 2-[[(2S)-1-[(4-methoxy-2,6-dimethyl-phenyl)sulfonyl]-piperidin-2-yl]-methoxy]-1-[4-(2-pyrrolidin-1-yl-ethoxy)-4-[3-(trifluoromethyl)phenyl]-piperidin-1-yl]-ethanone], the inhibition at 10 µM in experiment [1] is 96%; in experiment [2], 99%.

As to `COc1cc(C)c(S(=O)(=O)N2CCCC[C@H]2COCC(=O)N2CCC(OCCN3CCC3)(c3cccnc3)CC2)c(C)c1` [Example 61, 1-[4-[2-(azetidin-1-yl)-ethoxy]-4-pyridin-3-yl-piperidin-1-yl]-2-[[(2S)-1-[(4-methoxy-2,6-dimethyl-phenyl)sulfonyl]-piperidin-2-yl]-methoxy]-ethanone], the figures for the inhibition at 10 µM in experiment [1] and in experiment [2] were 101% and 100%, respectively.

On to `COc1cc(C)c(S(=O)(=O)N2CCCCC2COCCC(=O)N2CCC(OCCN3CCCC3)(c3cccc(F)c3)CC2)c(C)c1` (stereo not drawn) [Example 121, 1-[4-(3-fluorophenyl)-4-(2-pyrrolidin-1-yl-ethoxy)-piperidin-1-yl]-3-[[1-[(4-methoxy-2,6-dimethyl-phenyl)sulfonyl]-piperidin-2-yl]-methoxy]-propan-1-one], for which the inhibition at 10 µM was found to be 99% in experiment [1] and 100% in experiment [2].

As for `COc1cc(C)c(S(=O)(=O)N(C)CCOCC(=O)N2CCC(OCCCN3CCCC3)(c3cccnc3)CC2)c(C)c1` [Example 41, 4-methoxy-N,2,6-trimethyl-N-(2-(2-oxo-2-(4-(pyridin-3-yl)-4-(3-(pyrrolidin-1-yl)propoxy)piperidin-1-yl)ethoxy)ethyl)benzenesulfonamide], the values for the inhibition at 10 µM in experiment [1] and in experiment [2] were 101% and 100%, respectively.
